According to US20240262806A1, “INHIBITORS OF NLRP3” (PTC THERAPEUTICS, INC., priority 2021, published 2024):
Structures can show the parent of a compound that is named as a salt.

Test system: NLRP3 inflammasome
Assay: IL-1β Secretion Assay (NLRP3-dependent IL-1β secretion in PMA-differentiated THP-1 cells, nigericin activation, HTRF)
Assay type: cell-based
Conditions: Homo sapiens, THP-1, THP-1 cells, 100 ng/mL PMA 24 h, compound 20 h, 2.5 μM Nigericin 3 h; read-out: IC50 IL-1β Inhibition
How it was run: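 IL-1β release, quantified by HTRF after nigericin activation of the NLRP3 inflammasome, was the read-out. A logistic fit of percent inhibition gave IC50.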

| Structure (SMILES) | IC50 |
| --- | --- |
| Cc1cc2c(-c3ccc(C(F)(F)F)cc3OC(F)F)nnc(N[C@@H]3CCCN(CCO)C3)n2n1 [Compound I-375, (R)-2-(3-((4-(2-(Difluoromethoxy)-4-(trifluoromethyl)phenyl)-2-methylpyrazolo[1,5-d][1,2,4]triazin-7-yl)amino)piperidin-1-yl)ethan-1-ol] | 1 to 10 nM |
| FC(F)Oc1cc(C(F)(F)F)ccc1-c1nnc(N[C@@H]2CCCOC2)n2cccc12 [Compound I-376] | 1 to 10 nM |
| CCN1CCC[C@@H](Nc2nnc(-c3ccc(OC)cc3O)c3cccn23)C1 [Compound I-377] | 1 to 10 nM |
| N[C@H]1CCC[C@@H](Nc2nnc(-c3ccc(C(F)(F)F)cc3OC(F)F)c3cccn23)C1 [Compound I-378] | 10 to 100 nM |
| OCCN1CCC[C@@H](Nc2nnc(-c3c(O)cc(C4CC4)cc3F)c3cccn23)C1 [Compound I-379] | 1 to 10 nM |
| CN1CCC[C@@H](Nc2nnc(-c3c(O)cc(C4CC4)cc3F)c3cccn23)C1 [Compound I-380] | < 1 nM |
| COc1ccc(-c2nnc(N[C@@H]3CCCN(C)C3)n3nc(C)cc23)c(C(F)(F)F)c1 [Compound I-381] | 1 to 10 nM |
| Cc1cc2c(-c3ccc(C(F)(F)F)cc3C(F)(F)F)nnc(N[C@@H]3CCCN(C)C3)n2n1 [Compound I-382] | 1 to 10 nM |
| COc1cc(Cl)ccc1-c1nnc(N[C@@H]2CCCN(C)C2)n2cncc12 [Compound I-383] | 1 to 10 nM |
| CN1CCC[C@@H](Nc2nnc(-c3ccc(Cl)cc3O)c3cncn23)C1 [Compound I-384] | < 1 nM |
| CN1C[C@H](O)C[C@@H](Nc2nnc(-c3ccc(C(F)(F)F)cc3OC(F)F)c3cccn23)C1 [Compound I-385, (3R,5R)-5-[[1-[2-(Difluoromethoxy)-4-(trifluoromethyl)phenyl]pyrrolo[1,2-d][1,2,4]triazin-4-yl]amino]-1-methyl-piperidin-3-ol] | 100 to 300 nM |
| COc1cc(C(F)(F)F)ccc1-c1nnc(N[C@@H]2CCCN(C)C2)n2ccnc12 [Compound I-386, 8-[2-Methoxy-4-(trifluoromethyl)phenyl]-N-[(3R)-1-methyl-3-piperidyl]imidazo[1,2-d][1,2,4]triazin-5-amine formic acid salt] | 100 to 300 nM |
| CN1C[C@H](O)C[C@@H](Nc2nnc(-c3c(O)cc(C4CC4)cc3F)c3cccn23)C1 [Compound I-387, (3R,5R)-5-[[1-(4-Cyclopropyl-2-fluoro-6-hydroxy-phenyl)pyrrolo[1,2-d][1,2,4]triazin-4-yl]amino]-1-methyl-piperidin-3-ol] | 10 to 100 nM |
| FC(F)Oc1cc(C(F)(F)F)ccc1-c1nnc(N[C@@H]2CCOC2)n2cccc12 [Compound I-388] | 1 to 10 nM |
| C[C@H](O)CNc1nnc(-c2ccc(C(F)(F)F)cc2OC(F)F)c2cccn12 [Compound I-389] | 1 to 10 nM |
| COc1cc(Br)ccc1-c1nnc(N[C@@H]2CCCNC2)n2nccc12 [Compound I-390] | 100 to 300 nM |
| Oc1cc(Br)ccc1-c1nnc(N[C@@H]2CCCNC2)n2nccc12 [Compound I-391] | 1 to 10 nM |
| CCN1CCC[C@@H](Nc2nnc(-c3ccc(OC)cc3C(F)(F)F)c3cccn23)C1 [Compound I-392] | 1 to 10 nM |
| CN1CCC[C@@H](Nc2nnc(-c3ccc(C(F)(F)F)cc3O)c3c(F)ccn23)C1 [Compound I-393] | < 1 nM |
| CN1CCC[C@@H](Nc2nnc(-c3ccc(C(F)(F)F)cc3OC(F)F)c3c(F)ccn23)C1 [Compound I-394] | 1 to 10 nM |

| Structure (SMILES) | IC50 |
| --- | --- |
| Oc1cc(C(F)(F)F)cc(F)c1-c1nnc(N[C@@H]2CCCOC2)n2cccc12 [Compound I-395] | 10 to 100 nM |
| Cc1ccc(-c2nnc(N[C@@H]3CCCN(C)C3)n3nc(C)cc23)c(OC(F)(F)F)c1 [Compound I-396, (R)-2-Methyl-4-(4-methyl-2-(trifluoromethoxy)phenyl)-N-(1-methylpiperidin-3-yl)pyrazolo[1,5-d][1,2,4]triazin-7-amine] | 10 to 100 nM |
| Oc1cc(C(F)(F)F)ccc1-c1nnc(N[C@@H]2CCCOC2)n2cncc12 [Compound I-397] | 10 to 100 nM |
| CN1CCC[C@@H](Nc2nnc(-c3ccc(C(F)(F)F)cc3O)c3nccn23)C1 [Compound I-398, 2-[5-[[(3R)-1-Methyl-3-piperidyl]amino]imidazo[1,2-d][1,2,4]triazin-8-yl]-5-(trifluoromethyl)phenol formic acid salt] | > 300 nM |
| Oc1cc(C(F)(F)F)ccc1-c1nnc(N[C@@H]2CCC[C@H](O)C2)n2cccc12 [Compound I-399] | 10 to 100 nM |
| CO[C@H]1CCC[C@@H](Nc2nnc(-c3ccc(C(F)(F)F)cc3O)c3cccn23)C1 [Compound I-400] | 100 to 300 nM |
| Oc1cc(C(F)(F)F)ccc1-c1nnc(N[C@@H]2CCCOC2)n2cccc12 [Compound I-401] | 100 to 300 nM |
| Oc1cc(Cl)ccc1-c1nnc(N[C@@H]2CCCOC2)n2cccc12 [Compound I-402] | 10 to 100 nM |
| CC(C)(O)CN1CCC[C@@H](Nc2nnc(-c3ccc(Cl)cc3O)c3cccn23)C1 [Compound I-403] | 10 to 100 nM |
| CC(C)N1CCC[C@@H](Nc2nnc(-c3ccc(Cl)cc3O)c3cccn23)C1 [Compound I-404] | < 1 nM |
| Oc1cc(C(F)(F)F)ccc1-c1nnc(N[C@H]2C[C@](O)(C(F)(F)F)C2)n2cccc12 [Compound I-405] | 100 to 300 nM |
| C[C@]1(O)C[C@@H](Nc2nnc(-c3ccc(C(F)(F)F)cc3O)c3cccn23)C1 [Compound I-406] | 1 to 10 nM |
| COc1cc(C#N)ccc1-c1nnc(N[C@@H]2CCCN(C)C2)n2cccc12 [Compound I-407] | 10 to 100 nM |
| CN1C[C@H](F)C[C@@H](Nc2nnc(-c3ccc(OC(F)(F)F)cc3O)c3cccn23)C1 [Compound I-409] | 1 to 10 nM |
| CN1C[C@H](F)C[C@@H](Nc2nnc(-c3ccc(C(F)(F)F)cc3O)c3cccn23)C1 [Compound I-410] | 1 to 10 nM |
| COc1ccc(-c2nnc(N[C@@H]3CCCN(C)C3)n3c(C)ncc23)c(O)c1 [Compound I-411] | 10 to 100 nM |
| Oc1cc(C(F)(F)F)ccc1-c1nnc(N[C@@H]2CCCN(CC(F)F)C2)n2cccc12 [Compound I-412] | < 1 nM |
| CN1C[C@H](F)C[C@@H](Nc2nnc(-c3ccc(C(F)(F)F)cc3OC(F)F)c3cccn23)C1 [Compound I-413, 1-[2-(Difluoromethoxy)-4-(trifluoromethyl)phenyl]-N-[(3R,5R)-5-fluoro-1-methyl-3-piperidyl]pyrrolo[1,2-d][1,2,4]triazin-4-amine] | 1 to 10 nM |
| CCN1CCC[C@@H](Nc2nnc(-c3c(O)cc(C(F)(F)F)cc3F)c3cccn23)C1 [Compound I-414] | < 1 nM |
| OCCN1CCC[C@@H](Nc2nnc(-c3c(O)cc(C(F)(F)F)cc3F)c3cccn23)C1 [Compound I-415] | 1 to 10 nM |

| Structure (SMILES) | IC50 |
| --- | --- |
| CN1C[C@H](F)C[C@@H](Nc2nnc(-c3c(O)cc(C(F)(F)F)cc3F)c3cccn23)C1 [Compound I-416] | 1 to 10 nM |
| CC(C)(O)CN1CCC[C@@H](Nc2nnc(-c3c(O)cc(C(F)(F)F)cc3F)c3cccn23)C1 [Compound I-417] | 1 to 10 nM |
| Cc1cc(O)c(-c2nnc(N[C@@H]3CCCOC3)n3cccc23)c(F)c1 [Compound I-421] | 1 to 10 nM |
| Cc1cc(O)c(-c2nnc(N[C@@H]3CCC[C@H](O)C3)n3cccc23)c(F)c1 [Compound I-422] | 1 to 10 nM |
| Oc1cc(C2CC2)cc(F)c1-c1nnc(N[C@@H]2CCCOC2)n2cccc12 [Compound I-423] | 10 to 100 nM |
| Oc1cc(C2CC2)cc(F)c1-c1nnc(N[C@@H]2CCC[C@H](O)C2)n2cccc12 [Compound I-424] | 1 to 10 nM |
| Cc1ccc(-c2nnc(N[C@@H]3CCCN(C)C3)n3cccc23)c(C(F)F)c1 [Compound I-425, 1-[2-(Difluoromethyl)-4-methyl-phenyl]-N-[(3R)-1-methyl-3-piperidyl]pyrrolo[1,2-d][1,2,4]triazin-4-amine] | 10 to 100 nM |
| CN1CCC[C@@H](Nc2nnc(-c3ccc(C(F)(F)F)cc3C(F)F)c3cccn23)C1 [Compound I-426] | 10 to 100 nM |
| C[C@]1(O)C[C@@H](Nc2nnc(-c3ccc(C(F)(F)F)cc3C(F)F)c3cccn23)C1 [Compound I-427] | 10 to 100 nM |
| Cc1cc(F)c(-c2nnc(N[C@@H]3CCCN(C)C3)n3cccc23)c(OC(F)F)c1 [Compound I-428] | 10 to 100 nM |
| Cc1cc2c(-c3c(O)cc(C4CC4)cc3F)nnc(N[C@@H]3CCCN(C)C3)n2n1 [Compound I-429] | < 1 nM |
| Oc1cc(C(F)(F)F)cc(F)c1-c1nnc(N[C@@H]2CCCN(C3CCOCC3)C2)n2cccc12 [Compound I-430] | 1 to 10 nM |
| Cc1cc(C(F)(F)F)cc(O)c1-c1nnc(N[C@@H]2CCCN(C)C2)n2cccc12 [Compound I-431] | < 1 nM |
| CN1CCC[C@@H](Nc2nnc(-c3c(O)cc(Cl)cc3F)c3cccn23)C1 [Compound I-432] | < 1 nM |
| CCN1CCC[C@@H](Nc2nnc(-c3c(O)cc(Cl)cc3F)c3cccn23)C1 [Compound I-433] | < 1 nM |
| C[C@]1(O)C[C@@H](Nc2nnc(-c3c(O)cc(Cl)cc3F)c3cccn23)C1 [Compound I-434] | 1 to 10 nM |
| Oc1cc(Cl)ccc1-c1nnc(N[C@@H]2CCCNC2)n2cncc12 [Compound I-435] | 1 to 10 nM |
| OCCN1CCC[C@@H](Nc2nnc(-c3ccc(Cl)cc3O)c3cncn23)C1 [Compound I-436] | 1 to 10 nM |
| C[C@@H](O)CNc1nnc(-c2ccc(OC(F)(F)F)cc2O)c2cccn12 [Compound I-437] | 10 to 100 nM |
| CC(C)(O)CNc1nnc(-c2ccc(OC(F)(F)F)cc2O)c2cccn12 [Compound I-438] | 100 to 300 nM |

Same assay, conditions: THP-1 cells, 100 ng/mL PMA 24 h, compound 20 h, 2.5 μM Nigericin 3 h; read-out: IC50 IL-1β Inhibition

| Structure (SMILES) | IC50 |
| --- | --- |
| Cc1cc2c(-c3ccc(C4CC4)cc3OC(F)(F)F)nnc(N[C@@H]3CCCN(C)C3)n2n1 [Compound I-418] | 1 to 10 nM |
| Cc1cc2c(-c3ccc(C4CC4)cc3OC(F)(F)F)nnc(N[C@@H]3CCCN(C)C3)n2n1 [Compound I-419, (R)-4-(4-Cyclopropyl-2-(trifluoromethoxy)phenyl)-2-methyl-N-(1-methylpiperidin-3-yl)pyrazolo[1,5-d][1,2,4]triazin-7-amine] | 10 to 100 nM |
